These results are taken from PubChem BioAssay AID651630 (Sanford-Burnham Center for Chemical Genomics, 2012).

Molecules are shown by their SMILES. Active and inactive are the calls of the source.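 How the source made its calls: active means lipid-stain IC50 at or below a set limit, with nuclear-stain toxicity IC50 at least five times higher; inactive means the rest.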 Some results are limits rather than exact numbers.

The test system of one test is DAPI. As to the kind of experiment: TAG lipid buildup inhibition with viability readout – cell-based, panel, Nile Red and DAPI fluorescence, H9c2, dose response (AID 651630).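 Further: cells exposed to compound overnight before fixation and staining.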 Conditions: H9c2 cells, DAPI nuclear fluorescence (cytotoxicity counter-readout), oleic acid.
The subject of a further test is TAG. The description is as above. The following applies: H9c2 cells, Nile Red TAG fluorescence, oleic acid.

For `CN(C)CCCn1c(SCC(=O)Nc2nc(-c3cccc(Br)c3)cs2)nc2ccccc2c1=O`, the IC50 cytotoxicity (DAPI nuclear signal decrease) was > 25 µM (inactive) in the test on DAPI (mean of runs), above 25 µM in the test with DAPI (run 1) and above 25 µM in the test with DAPI (run 2). For the same compound, the IC50 with TAG (mean of runs) is 9.78 µM; in the test on TAG (run 1) it was 10.1 µM; with TAG (run 2) it was 9.46 µM.

Turning to `COC(=O)C1=C(C)N(Cc2ccccc2)C(=NCc2ccccc2)N[C@H]1c1ccccc1`, the IC50 cytotoxicity (DAPI nuclear signal decrease) in the test on DAPI (run 1) was above 25 µM; in the test on DAPI (run 2) it was 18.2 µM. Besides, the values for the IC50 in the test with TAG (mean of runs), with TAG (run 1) and in the test on TAG (run 2) were > 25 µM (inactive), above 25 µM and above 25 µM, respectively.

`CCCCCCCC(=O)Nc1cc(C(=O)NCCC)ccc1N1CCC2(CC1)CC(c1cccc(Br)c1)=NO2`: the IC50 cytotoxicity (DAPI nuclear signal decrease) with DAPI (mean of runs) is > 25 µM (inactive); in the test on DAPI (run 1), above 25 µM; in the test on DAPI (run 2), above 25 µM. Also, the IC50 was 15.2 µM (inactive) in the test with TAG (mean of runs), 11.8 µM in the test with TAG (run 1) and 18.6 µM in the test with TAG (run 2).

Take `O=C(CCl)N(CCCNC(=O)C(F)(F)F)c1ccc([N+](=O)[O-])cc1`: the results for the IC50 cytotoxicity (DAPI nuclear signal decrease) in the test with DAPI (mean of runs), in the test on DAPI (run 1) and in the test on DAPI (run 2) were > 25 µM (inactive), above 25 µM and above 25 µM, respectively. Also, the IC50 in the test on TAG (mean of runs) was > 25 µM (inactive); in the test with TAG (run 1) it was above 25 µM; in the test with TAG (run 2), above 25 µM.

Regarding `CSc1cc(-c2ccccc2)n(Cc2c(Cl)cccc2Cl)c(=O)c1C#N`, the values for the IC50 cytotoxicity (DAPI nuclear signal decrease) in the test with DAPI (mean of runs), in the test on DAPI (run 1) and in the test on DAPI (run 2) were > 25 µM (inactive), above 25 µM and above 25 µM, respectively. Besides, the half-maximal inhibitory concentration (IC50) in the test on TAG (run 1) is 17.9 µM; in the test on TAG (run 2), above 25 µM.

For the compound `CCC(=NCCc1c(C)[nH]c2ccc(OC(F)(F)F)cc12)C1=C(O)CC(c2ccccc2)CC1=O` (centres undefined), the figures for the IC50 cytotoxicity (DAPI nuclear signal decrease) in the test with DAPI (mean of runs), with DAPI (run 1) and with DAPI (run 2) were > 25 µM (inactive), above 25 µM and above 25 µM, respectively. Further, the IC50 in the test with TAG (mean of runs) was > 25 µM (inactive); in the test on TAG (run 1), above 25 µM; in the test on TAG (run 2), above 25 µM.

Turning to `O=C(Nc1nc2ccc(C(=O)N3CCCCC3)cc2s1)C1CCCCC1`, the IC50 cytotoxicity (DAPI nuclear signal decrease) was > 25 µM (inactive) with DAPI (mean of runs), above 25 µM in the test on DAPI (run 1) and above 25 µM with DAPI (run 2). Moreover, the IC50 in the test with TAG (mean of runs) is 15.4 µM (inactive); with TAG (run 1) it was 10.6 µM; in the test with TAG (run 2), 20.2 µM.

In the case of `COc1ccc(C2c3cc4c(cc3OC(N3CCOCC3)C2C)OCO4)c(OC)c1` (centres undefined), the IC50 cytotoxicity (DAPI nuclear signal decrease) in the test with DAPI (mean of runs) was > 25 µM (inactive); with DAPI (run 1) it was above 25 µM; in the test on DAPI (run 2), above 25 µM. In addition, the IC50 with TAG (mean of runs) is 10.1 µM; with TAG (run 1), 6.4 µM; in the test on TAG (run 2) it was 13.8 µM.

`Cc1cccc(NC(=O)c2ccc([N+](=O)[O-])o2)c1C`: the IC50 cytotoxicity (DAPI nuclear signal decrease) in the test on DAPI (mean of runs) was 10.3 µM (inactive); in the test on DAPI (run 1), 9.7 µM; with DAPI (run 2), 10.9 µM. The IC50 is 19.8 µM in the test on TAG (run 1) and above 25 µM in the test with TAG (run 2).

Consider `CC(C)C[C@H]1CNC(=S)N1CC1CCCN1C[C@H](CC(C)C)N1C[C@H](CC(C)C)N(CC2CCCCCC2)C1=S` (some centres undefined), for which the IC50 cytotoxicity (DAPI nuclear signal decrease) with DAPI (mean of runs) is > 25 µM (inactive); with DAPI (run 1), above 25 µM; in the test with DAPI (run 2), above 25 µM. Further, the IC50 in the test with TAG (mean of runs) is > 25 µM (inactive); in the test on TAG (run 1), above 25 µM; in the test on TAG (run 2), above 25 µM.

Regarding `Cc1ccsc1-c1nc(C(N)=O)c2[nH]c(=O)n(-c3ccc(Cl)cc3)c2n1`, the IC50 cytotoxicity (DAPI nuclear signal decrease) was > 25 µM (inactive) in the test with DAPI (mean of runs), above 25 µM in the test on DAPI (run 1) and above 25 µM in the test with DAPI (run 2). For the same compound, the IC50 was > 25 µM (inactive) in the test with TAG (mean of runs), above 25 µM in the test on TAG (run 1) and above 25 µM with TAG (run 2).

In the case of `CCCCCc1cc(=O)oc2c(C(CCN3CCCC3)c3cc(OC)c(OC)c(OC)c3)c(OC)cc(OC)c12` (centres undefined), the IC50 cytotoxicity (DAPI nuclear signal decrease) in the test on DAPI (mean of runs) is 20.2 µM (inactive); with DAPI (run 1), 20.1 µM; in the test with DAPI (run 2) it was 20.2 µM. Moreover, the IC50 in the test with TAG (run 1) was above 25 µM; in the test with TAG (run 2), 17.4 µM.

As for `O=C(Nc1ccc(S(=O)(=O)N2CCOCC2)cc1)c1ccc([N+](=O)[O-])s1`, the IC50 cytotoxicity (DAPI nuclear signal decrease) with DAPI (mean of runs) is > 25 µM (inactive); in the test on DAPI (run 1), above 25 µM; with DAPI (run 2), above 25 µM. The values for the IC50 in the test with TAG (mean of runs), with TAG (run 1) and in the test on TAG (run 2) were 10.9 µM, 13.1 µM and 8.75 µM, respectively.

As for `c1ccc(OCCNc2nc(NCC3CC3)nc3cc(-c4ccccc4)sc23)cc1`, the results for the IC50 cytotoxicity (DAPI nuclear signal decrease) with DAPI (mean of runs), in the test with DAPI (run 1) and in the test with DAPI (run 2) were > 25 µM (inactive), above 25 µM and above 25 µM, respectively. Also, the IC50 is 12.8 µM in the test on TAG (mean of runs), 12.7 µM with TAG (run 1) and 12.9 µM with TAG (run 2).

In the case of `Nc1c(Cl)cc(-c2csc(N3CCCC3c3nc4cc(Cl)c(N5CCCCC5)cc4n3CCOCCO)n2)cc1Cl` (centres undefined), the IC50 cytotoxicity (DAPI nuclear signal decrease) in the test on DAPI (mean of runs) was > 25 µM (inactive); with DAPI (run 1) it was above 25 µM; in the test with DAPI (run 2), above 25 µM. Besides, the IC50 was 11.4 µM in the test with TAG (mean of runs), 11.6 µM in the test on TAG (run 1) and 11.1 µM in the test on TAG (run 2).

For `Cc1ccc(Cn2cc(/C=N/NC(=O)Cc3nnc(NC(=O)c4ccc(C)cc4)s3)c3ccccc32)cc1`, the IC50 cytotoxicity (DAPI nuclear signal decrease) with DAPI (mean of runs) was 16 µM (inactive); in the test with DAPI (run 1), 13.1 µM; in the test with DAPI (run 2) it was 19 µM. Also, the IC50 with TAG (mean of runs) was > 25 µM (inactive); in the test on TAG (run 1) it was above 25 µM; with TAG (run 2), above 25 µM.

Take `Cc1ccc2c(c1)N(C(=O)CCC(=O)NCCCN1CCC(Cc3ccccc3)CC1)CCO2`: the IC50 cytotoxicity (DAPI nuclear signal decrease) is 22.3 µM (inactive) in the test with DAPI (mean of runs), 20.2 µM in the test with DAPI (run 1) and 24.3 µM with DAPI (run 2). The IC50 in the test with TAG (mean of runs) was 18.7 µM (inactive); with TAG (run 1) it was 19.5 µM; in the test with TAG (run 2) it was 17.9 µM.

For `C=CC[C@@H](CC(=O)N(CCO)Cc1ccccc1)C(=O)N[C@H](COC(=O)[C@@H](CC=C)Cc1ccc(F)cc1)C(C)(C)C`, the IC50 cytotoxicity (DAPI nuclear signal decrease) in the test with DAPI (run 1) and in the test with DAPI (run 2) was above 25 µM each time. For the same compound, the results for the half-inhibitory concentration (IC50) in the test with TAG (mean of runs), with TAG (run 1) and in the test with TAG (run 2) were 4.28 µM, 3.51 µM and 5.05 µM, respectively.

Regarding `Cc1ccc(C2C(C=Nc3c(C)n(C)n(-c4ccccc4)c3=O)=C(c3ccccc3)Oc3ccccc32)cc1` (centres undefined), the results for the IC50 cytotoxicity (DAPI nuclear signal decrease) with DAPI (mean of runs), with DAPI (run 1) and in the test on DAPI (run 2) were > 25 µM (inactive), above 25 µM and above 25 µM, respectively. Besides, the figures for the IC50 in the test on TAG (mean of runs), in the test on TAG (run 1) and with TAG (run 2) were 7.41 µM, 6.56 µM and 8.27 µM, respectively.

Broadly, the IC50 is the concentration needed to halve the response being measured.
